Results reported in publication PMC11141866, “Pyrimidine depletion enhances targeted and immune therapy combinations in acute myeloid leukemia” (JCI Insight, 2024).
In brackets after ≈: the same amount, converted by molar mass. Several values for one entry are separate records, joined by “and”; a condition that tells them apart may be missing. Equal values may be shown once. Read-outs that look alike come from different tables or passages of the source.

Tests used:
[1] = Thermodynamic solubility; type: physicochemical; settings: thermodynamic from solid
Description: (§1) Supplement jciinsight-9-173646-s083.xlsx, sheet "Supplemental Table S.2." | column: HOSU-53

[2] = In vivo p.o. PK in rat; settings: po
Description: as §1

[3] = test system: HL-60 disseminated CDX model; test: HL-60 CDX synergy with decitabine; type: in vivo, NCG mice; settings: Decitabine 0.4 mpk IP (4on/10off), HOSU53 10 mpk p.o. qd, or both; flag 0 = censored at day 82
Procedure: Female 8- to 12-week-old female NCG mice were engrafted with 1 × 10^7 cells via tail vein i.v. injection. At 14 days after engraftment (day 1 of treatment), mice (n = 10/arm) were randomized to receive p.o. qd and i.p. vehicle (p.o. qd 40% HPβCD and 4 on/10 off i.p. PBS), 10 mg/kg HOSU-53, i.p. 0.4 mg/kg decitabine on a 4-day on/10-day off cycle, or their combination till moribundity or end of study day 82.

[4] = test system: MV4-11 AML target cells; test: Murine BMDM phagocytosis of MV4-11 cells (ADCP); type: cell-based, human
Procedure: Supplemental Figure S.9. A) Murine bone marrow derived macrophages (BMDM, effector cells) were generated from harvested bone marrow cells grown in the presence of 20ng/ml murine M-CSF for 7-8 days where media was refreshed on day 3. After BMDM generation, they were collected and stained […]
with CFDA-SE (green). […]
and stained with CTV (blue). Green BMDM cells were then co-cultured for 4 h with blue MV4-11 AML cells in the presence of 10 µg/ml isotype IgG1 or anti-CD47 antibody at 1:1 E:T ratio in an ultra-low binding tissue culture plate. Cells were then collected and analyzed using flow cytometry to quantify percentage of phagocytosed cells indicated by viable F4/80+CFDA+CTV+ cells (n=6). Adjusted FDR p-value *<0.05, ***≤0.0001, nonsignificant (ns) ≥0.05. B) Representative florescent microscopy images were taken using 20x objective to visualize antibody dependent cellular phagocytosis (ADCP). Prior to imaging, the wells were rinsed three time to remove MV4-11 target cells in suspension and allow the imaging of adherent effector cells (green BMDM) and residual blue MV4 -11 target cells. The outlined area in the red box is manually enlarged.
(1 picture or pasted object on this page, not shown here)

[5] = test system: Kasumi; test: MTS proliferation assay, Kasumi; type: cell-based; settings: Homo sapiens; Kasumi, 96-hour treatment; read-out: IC50 (MTS proliferation)
Procedure: A total of 10,000–20,000 cells from different AML lines or 50,000–75,000 cells of primary AML blasts were treated in a 96-well plate for 72 hours or 96 hours at 37°C, 5% CO2. CellTiter 96 Aqueous MTS reagent (Promega) was added to cells followed by a 3-hour incubation at 37°C, 5% CO2. The absorbance was measured at 490 nm using DTX 880 plate reader, and the IC50 was calculated using GraphPad Prism.

[6] = target: CYP 3A4 (Homo sapiens, UniProt P08684); test: CYP inhibition 3A4; type: in vitro ADME
Description: as §1

[7] = LogD; type: physicochemical; settings: pH 7.4
Description: as §1

[8] = test system: plasma dihydroorotate (DHO); test: Single-dose PD: plasma DHO accumulation in mice; type: in vivo, male C57BL/6 mice; settings: HOSU-53 10 mpk PO, per mouse
Procedure: In the i.v. cohort, serial blood samples were collected in tubes containing K2EDTA at 0.083, 0.25, 0.5, 1, 2, 6, 24, 48, and 72 hours postdose while in the oral gavage cohort, serial blood samples were collected at 0.25, 0.5, 1, 2, 4, 8, 24, 48, and 72 hours postdose. Blood samples were processed to plasma to analyze for HOSU-53 and L-dihydroorotic acid (DHO) concentrations using liquid chromatography-tandem mass spectrometry. page 6: Plasma samples were obtained following appropriate dosing administration and saved in the -80°C freezer till the time of analysis. Analyses by LC-MS/MS followed sample extraction by protein precipitation and separation by Ultra Performance Liquid Chromatography (UPLC, Waters Corporation, MA, USA) using a C18 column, 1.7um, 2.1x50mm, Mobile Phase A: 5:95:0.1 (v:v:v) Acetonitrile:Water:Formic Acid, Mobile Phase B: 50:50:0.1 (v:v:v) Methanol:Acetonitrile:Formic Acid. MS/MS analyses were performed on an API-6500 (Absciex MA, USA) in positive mode using an electrospray source at 550°C. The internal standard was d4-AEA monitored at 352.2 and 66.0 m/z transitions and the target analyte, HOSU-53, was monitored at 416.5 and 331.1 m/z transitions. The assay was qualified between 10-5,000 ng/ml HOSU53 to be within ±20% for QCs above the LLOQ in this range and ±25% at the LLOQ. DHO concentration quantification in mouse plasma samples. Plasma samples were obtained following appropriate dosing administration and saved in the -80°C freezer till the time of analysis. Analyses by LC-MS/MS followed sample extraction by protein precipitation and separation by Ultra Performance Liquid Chromatography (UPLC, Waters Corporation, MA, USA) using a Phenomenex Aqua C18 100x4.6mm, 3uM, […], Mobile Phase A: 100:0.1 (v:v) Water:Formic Acid, Mobile Phase B: 100:0.1 (v:v) Methanol:Formic Acid. MS/MS analyses were performed on an API-4000 (Absciex MA, USA) in negative mode using an electrospray source at 550°C. The internal standard was labeled 13C14_L-Dihydroorotic Acid monitored at 161.3 and 117.1 m/z transitions and the target analyte, L-Dihydroorotic Acid (DHO), was monitored at 157.0 and 70.0 m/z transitions. The assay was qualified between 10.0-30,000 ng/ml DHO to be within ±20% for QCs above the LLOQ in this range and ±25% at the LLOQ.

Sequence of CYP 3A4 (P08684 whole entry): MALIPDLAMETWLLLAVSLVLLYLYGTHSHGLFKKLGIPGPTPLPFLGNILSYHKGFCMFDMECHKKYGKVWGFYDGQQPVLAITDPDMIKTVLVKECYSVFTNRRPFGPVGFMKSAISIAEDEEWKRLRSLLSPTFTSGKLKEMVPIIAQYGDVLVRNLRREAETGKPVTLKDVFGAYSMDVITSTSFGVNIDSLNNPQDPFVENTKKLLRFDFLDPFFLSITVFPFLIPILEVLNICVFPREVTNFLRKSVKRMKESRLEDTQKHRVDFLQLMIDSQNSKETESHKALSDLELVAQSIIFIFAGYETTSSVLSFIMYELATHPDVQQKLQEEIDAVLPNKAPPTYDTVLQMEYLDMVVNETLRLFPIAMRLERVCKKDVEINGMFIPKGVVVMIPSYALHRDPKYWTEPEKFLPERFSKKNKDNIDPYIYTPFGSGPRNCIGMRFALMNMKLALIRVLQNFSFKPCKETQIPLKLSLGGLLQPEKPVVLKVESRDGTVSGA

Question: Which results are given for `CCCCOc1cccc(-c2ccc(-c3cc(C(=O)O)c4cc(F)ccc4n3)cc2)c1` [HOSU-53]?
Answer: solubility thermodynamic ([1]; FaSSIF, heading: Thermodynamic solubility FaSSIF): 43 µM (≈ 17.9 µg/mL); solubility thermodynamic ([1]; FeSSIF, heading: Thermodynamic solubility FeSSIF): 373 µM (≈ 155 µg/mL); solubility thermodynamic ([1]; SGF, simulated gastric fluid, heading: Thermodynamic solubility SGF): < 1.56 µM; bioavailability ([2]; read-out: in vivo p.o. bioavailability (F)): 59%; half-life ([2]; read-out: in vivo p.o. t1/2 (converted)): 7.6 h; Survival, day of study at event (per animal) [3]: 57 days and 52 days and 56 days and 58 days and 55 days; CDFA+F4/80+CTV+ ([4]; 25nM HOSU53 + IgG1, six replicate columns, DMSO + IgG1 control 3.5-16.7): 31.4 and 44.6 and 23.1 and 30.2 and 23.9 and 17.1; phagocytosis of AML cells by murine BMDM in presence of B6H12 antibody ([4]; 72-hour HOSU-53 (10nM) pretreatment of MV4-11, 10 µg/ml anti-CD47): greatly enhanced phagocytosis; IC50 [5]: 0.045 µM; IC50 ([6]; substrate midazolam, read-out: CYP inhibition IC50 3A4 (Midazolam)): 42.6 µM; IC50 ([6]; substrate testosterone, read-out: CYP inhibition IC50 3A4 (testosterone)): 22.4 µM; logD [7]: 4.36; DHO plasma concentration ([8]; 0.5 h postdose): 0.2422 µM; DHO plasma concentration ([8]; 1 h postdose, 10 mg/kg): 0.6072 µM and 0.4288 µM and 0.8412 µM; DHO plasma concentration ([8]; 2 h postdose, 10 mg/kg): 2.068 µM and 1.512 µM and 1.613 µM; DHO plasma concentration ([8]; 4 h postdose, 10 mg/kg): 2.783 µM and 2.701 µM and 3.7758 µM; DHO plasma concentration ([8]; 8 h postdose, 10 mg/kg): 6.325 µM and 4.807 µM and 6.894 µM; DHO plasma concentration ([8]; 24 h postdose, 10 mg/kg): 9.613 µM and 11.9535 µM and 9.74 µM; DHO plasma concentration ([8]; 48 h postdose, 10 mg/kg): 4.364 µM and 4.453 µM and 2.467 µM; DHO plasma concentration ([8]; 72 h postdose, 10 mg/kg): 1.189 µM and 0.9613 µM and 1.132 µM
